Measurements: PubChem BioAssay (NCI)
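Where inhibition never reached the appropriate level, the endpoint shown equals the highest concentration tested. Otherwise, values were interpolated linearly from a five-concentration, 48-hour dose response in 96-well plates. TGI: concentration producing complete growth inhibition.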

Key:
Assay in all cases: NCI-60 cell line screen, 48 h
EKVX NSCLC = system: EKVX NSCLC
NCI-H226 lung = system: NCI-H226 lung
NCI-H522 lung = system: NCI-H522 lung
UO-31 renal = system: UO-31 renal
SW-620 colon = system: SW-620 colon
M14 melanoma = system: M14 melanoma
SR leukemia = system: SR leukemia
HL-60(TB) leukemia = system: HL-60(TB) leukemia
NCI-H460 lung = system: NCI-H460 lung
HOP-62 NSCLC = system: HOP-62 NSCLC
ACHN renal = system: ACHN renal
SNB-19 CNS = system: SNB-19 CNS
SK-OV-3 ovarian = system: SK-OV-3 ovarian
LOX IMVI melanoma = system: LOX IMVI melanoma
MALME-3M melanoma = system: MALME-3M melanoma
CCRF-CEM leukemia = system: CCRF-CEM leukemia
U251 CNS = system: U251 CNS
IGROV1 ovarian = system: IGROV1 ovarian
MDA-MB-435 = system: MDA-MB-435
A498 renal = system: A498 renal
HOP-92 NSCLC = system: HOP-92 NSCLC
HCT-15 colon = system: HCT-15 colon
786-0 renal = system: 786-0 renal
MDA-MB-231 breast = system: MDA-MB-231 breast
HCC-2998 colon = system: HCC-2998 colon
MDA-N = system: MDA-N
MCF7 breast = system: MCF7 breast
SK-MEL-5 melanoma = system: SK-MEL-5 melanoma
HT29 colon = system: HT29 colon
A549 NSCLC = system: A549 NSCLC
SN12C renal = system: SN12C renal
BT-549 breast = system: BT-549 breast
RXF 393 renal = system: RXF 393 renal
K-562 leukemia = system: K-562 leukemia
MOLT-4 leukemia = system: MOLT-4 leukemia
OVCAR-4 ovarian = system: OVCAR-4 ovarian
COLO 205 colon = system: COLO 205 colon
SF-295 CNS = system: SF-295 CNS
SNB-75 CNS = system: SNB-75 CNS
DU-145 prostate = system: DU-145 prostate
OVCAR-8 ovarian = system: OVCAR-8 ovarian
NCI-H23 lung = system: NCI-H23 lung
SF-268 CNS = system: SF-268 CNS
UACC-62 melanoma = system: UACC-62 melanoma
TK-10 renal = system: TK-10 renal
KM12 colon = system: KM12 colon
T-47D breast = system: T-47D breast
NCI/ADR-RES ovarian = system: NCI/ADR-RES ovarian
HCT-116 colon = system: HCT-116 colon
PC-3 prostate = system: PC-3 prostate
UACC-257 melanoma = system: UACC-257 melanoma
SK-MEL-28 melanoma = system: SK-MEL-28 melanoma
CAKI-1 renal = system: CAKI-1 renal
OVCAR-5 ovarian = system: OVCAR-5 ovarian
OVCAR-3 ovarian = system: OVCAR-3 ovarian
SF-539 CNS = system: SF-539 CNS
SK-MEL-2 melanoma = system: SK-MEL-2 melanoma
RPMI-8226 leukemia = system: RPMI-8226 leukemia
HS 578T breast = system: HS 578T breast

**Q.** With `CC(=O)O[C@H]1CC[C@@]2(C)C(=CC[C@@H]3[C@@H]2CC[C@]2(C)c4nc(Cl)ccc4C[C@@H]32)C1` as the compound, how does the TGI (EKVX NSCLC) read?
**A.** > 100 µM

**Q.** And the TGI (NCI-H226 lung)?
**A.** > 100 µM

**Q.** What about the TGI (NCI-H522 lung) of the same compound?
**A.** > 100 µM

**Q.** And the TGI (UO-31 renal)?
**A.** > 100 µM

**Q.** And the TGI (SW-620 colon)?
**A.** > 100 µM

**Q.** And the TGI (M14 melanoma)?
**A.** > 100 µM

**Q.** And the TGI (SR leukemia)?
**A.** > 100 µM

**Q.** What about the TGI (HL-60(TB) leukemia) of the same compound?
**A.** > 100 µM

**Q.** What about the TGI (NCI-H460 lung) of the same compound?
**A.** > 100 µM

**Q.** And the TGI (HOP-62 NSCLC)?
**A.** > 100 µM

**Q.** What about the TGI (ACHN renal) of the same compound?
**A.** > 100 µM

**Q.** And the TGI (SNB-19 CNS)?
**A.** > 100 µM

**Q.** What about the TGI (SK-OV-3 ovarian) of the same compound?
**A.** > 100 µM

**Q.** And the TGI (LOX IMVI melanoma)?
**A.** > 100 µM

**Q.** And the TGI (MALME-3M melanoma)?
**A.** > 100 µM

**Q.** And the TGI (CCRF-CEM leukemia)?
**A.** 58.4 µM

**Q.** And the TGI (U251 CNS)?
**A.** > 100 µM

**Q.** What about the TGI (IGROV1 ovarian) of the same compound?
**A.** > 100 µM

**Q.** And the TGI (MDA-MB-435)?
**A.** > 100 µM

**Q.** And the TGI (A498 renal)?
**A.** > 100 µM

**Q.** And the TGI (HOP-92 NSCLC)?
**A.** > 100 µM

**Q.** What about the TGI (HCT-15 colon) of the same compound?
**A.** > 100 µM

**Q.** What about the TGI (786-0 renal) of the same compound?
**A.** > 100 µM

**Q.** And the TGI (MDA-MB-231 breast)?
**A.** > 100 µM

**Q.** And the TGI (HCC-2998 colon)?
**A.** > 100 µM

**Q.** And the TGI (MDA-N)?
**A.** > 100 µM

**Q.** What about the TGI (MCF7 breast) of the same compound?
**A.** 62.3 µM

**Q.** And the TGI (SK-MEL-5 melanoma)?
**A.** 96.6 µM

**Q.** What about the TGI (HT29 colon) of the same compound?
**A.** > 100 µM

**Q.** What about the TGI (A549 NSCLC) of the same compound?
**A.** > 100 µM

**Q.** What about the TGI (SN12C renal) of the same compound?
**A.** > 100 µM

**Q.** And the TGI (BT-549 breast)?
**A.** > 100 µM

**Q.** And the TGI (RXF 393 renal)?
**A.** > 100 µM

**Q.** And the TGI (K-562 leukemia)?
**A.** > 100 µM

**Q.** And the TGI (MOLT-4 leukemia)?
**A.** > 100 µM

**Q.** What about the TGI (OVCAR-4 ovarian) of the same compound?
**A.** > 100 µM

**Q.** What about the TGI (COLO 205 colon) of the same compound?
**A.** > 100 µM

**Q.** And the TGI (SF-295 CNS)?
**A.** 83.3 µM

**Q.** What about the TGI (SNB-75 CNS) of the same compound?
**A.** 94 µM

**Q.** And the TGI (DU-145 prostate)?
**A.** > 100 µM

**Q.** And the TGI (OVCAR-8 ovarian)?
**A.** > 100 µM

**Q.** What about the TGI (NCI-H23 lung) of the same compound?
**A.** 19.4 µM

**Q.** What about the TGI (SF-268 CNS) of the same compound?
**A.** > 100 µM

**Q.** What about the TGI (UACC-62 melanoma) of the same compound?
**A.** 54.3 µM

**Q.** And the TGI (TK-10 renal)?
**A.** > 100 µM

**Q.** And the TGI (KM12 colon)?
**A.** > 100 µM

**Q.** And the TGI (T-47D breast)?
**A.** > 100 µM

**Q.** What about the TGI (NCI/ADR-RES ovarian) of the same compound?
**A.** > 100 µM

**Q.** And the TGI (HCT-116 colon)?
**A.** > 100 µM

**Q.** What about the TGI (PC-3 prostate) of the same compound?
**A.** > 100 µM

**Q.** And the TGI (UACC-257 melanoma)?
**A.** > 100 µM

**Q.** And the TGI (SK-MEL-28 melanoma)?
**A.** > 100 µM

**Q.** And the TGI (CAKI-1 renal)?
**A.** > 100 µM

**Q.** What about the TGI (OVCAR-5 ovarian) of the same compound?
**A.** > 100 µM

**Q.** And the TGI (OVCAR-3 ovarian)?
**A.** 69.8 µM

**Q.** Which TGI (EKVX NSCLC) does the source give for `O=c1[nH]c2nc3ccccc3c(=O)n2/c1=C/c1ccco1` here?
**A.** > 100 µM

**Q.** What about the TGI (NCI-H226 lung) of the same compound?
**A.** > 100 µM

**Q.** What about the TGI (NCI-H522 lung) of the same compound?
**A.** > 100 µM

**Q.** And the TGI (UO-31 renal)?
**A.** > 100 µM

**Q.** What about the TGI (SW-620 colon) of the same compound?
**A.** > 100 µM

**Q.** And the TGI (M14 melanoma)?
**A.** > 100 µM

**Q.** What about the TGI (SR leukemia) of the same compound?
**A.** > 100 µM

**Q.** And the TGI (HL-60(TB) leukemia)?
**A.** > 100 µM

**Q.** What about the TGI (SF-539 CNS) of the same compound?
**A.** > 100 µM

**Q.** And the TGI (HOP-62 NSCLC)?
**A.** > 100 µM

**Q.** What about the TGI (ACHN renal) of the same compound?
**A.** > 100 µM

**Q.** What about the TGI (SNB-19 CNS) of the same compound?
**A.** > 100 µM

**Q.** And the TGI (SK-OV-3 ovarian)?
**A.** > 100 µM

**Q.** And the TGI (LOX IMVI melanoma)?
**A.** > 100 µM

**Q.** What about the TGI (MALME-3M melanoma) of the same compound?
**A.** > 100 µM

**Q.** And the TGI (CCRF-CEM leukemia)?
**A.** > 100 µM

**Q.** What about the TGI (U251 CNS) of the same compound?
**A.** > 100 µM

**Q.** And the TGI (IGROV1 ovarian)?
**A.** > 100 µM

**Q.** What about the TGI (MDA-MB-435) of the same compound?
**A.** > 100 µM

**Q.** What about the TGI (HOP-92 NSCLC) of the same compound?
**A.** > 100 µM

**Q.** What about the TGI (HCT-15 colon) of the same compound?
**A.** > 100 µM

**Q.** And the TGI (786-0 renal)?
**A.** > 100 µM

**Q.** What about the TGI (MDA-MB-231 breast) of the same compound?
**A.** > 100 µM

**Q.** And the TGI (SK-MEL-2 melanoma)?
**A.** > 100 µM

**Q.** What about the TGI (HCC-2998 colon) of the same compound?
**A.** > 100 µM

**Q.** What about the TGI (MDA-N) of the same compound?
**A.** > 100 µM

**Q.** What about the TGI (MCF7 breast) of the same compound?
**A.** > 100 µM

**Q.** What about the TGI (SK-MEL-5 melanoma) of the same compound?
**A.** > 100 µM

**Q.** What about the TGI (HT29 colon) of the same compound?
**A.** > 100 µM

**Q.** And the TGI (A549 NSCLC)?
**A.** > 100 µM

**Q.** What about the TGI (SN12C renal) of the same compound?
**A.** > 100 µM

**Q.** And the TGI (BT-549 breast)?
**A.** > 100 µM

**Q.** What about the TGI (RPMI-8226 leukemia) of the same compound?
**A.** > 100 µM

**Q.** What about the TGI (K-562 leukemia) of the same compound?
**A.** > 100 µM

**Q.** What about the TGI (MOLT-4 leukemia) of the same compound?
**A.** > 100 µM

**Q.** What about the TGI (OVCAR-4 ovarian) of the same compound?
**A.** > 100 µM

**Q.** And the TGI (COLO 205 colon)?
**A.** > 100 µM

**Q.** And the TGI (SF-295 CNS)?
**A.** > 100 µM

**Q.** And the TGI (SNB-75 CNS)?
**A.** > 100 µM

**Q.** And the TGI (DU-145 prostate)?
**A.** > 100 µM

**Q.** And the TGI (OVCAR-8 ovarian)?
**A.** > 100 µM

**Q.** What about the TGI (NCI-H23 lung) of the same compound?
**A.** > 100 µM

**Q.** And the TGI (SF-268 CNS)?
**A.** > 100 µM

**Q.** And the TGI (UACC-62 melanoma)?
**A.** > 100 µM

**Q.** And the TGI (TK-10 renal)?
**A.** > 100 µM

**Q.** What about the TGI (KM12 colon) of the same compound?
**A.** > 100 µM

**Q.** What about the TGI (T-47D breast) of the same compound?
**A.** > 100 µM

**Q.** What about the TGI (NCI/ADR-RES ovarian) of the same compound?
**A.** > 100 µM

**Q.** What about the TGI (HCT-116 colon) of the same compound?
**A.** > 100 µM

**Q.** What about the TGI (PC-3 prostate) of the same compound?
**A.** > 100 µM

**Q.** And the TGI (HS 578T breast)?
**A.** > 100 µM

**Q.** And the TGI (UACC-257 melanoma)?
**A.** > 100 µM

**Q.** And the TGI (SK-MEL-28 melanoma)?
**A.** > 100 µM

**Q.** And the TGI (CAKI-1 renal)?
**A.** > 100 µM

**Q.** And the TGI (OVCAR-5 ovarian)?
**A.** > 100 µM

**Q.** And the TGI (OVCAR-3 ovarian)?
**A.** > 100 µM
